Like-named read-outs stand apart in the source and are kept apart here.
Tests used:
Format in all cases: physicochemical
[1] = Polymorph transformation in the presence of moisture
[2] = Differential scanning calorimetry (DSC), thermal properties
[3] = Hygroscopicity at 93% relative humidity (weight gain, HPLC assay)
Description: (§1) A small amount of the polymorphic Form C crystal (about 10 mg) was weighed into a weighing bottle and placed in a chamber with controlled relative humidity for 4 weeks and the percentage of water absorbed was calculated form the weight gain. The sample was also assayed by HPLC against an external standard on a Waters 2690 HPLC at 276 nm with a Zorbax SB-Phenyl column. The mobile phase is a gradient run at 1 mL/min consisting of acetonitrile/water with 10 mM heptane sulfonic acid, 0.1% phosphoric acid in both. The gradient is run as 10% ACN to 100% in 30 min. The data was processed using Waters Millennium software version 3.2. The thermal stability also was determined at 60° C. and at 40° C./75% relative humidity. The purity of the sample was determined by assaying weighed aliquots by HPLC against an external standard.

[4] = Accelerating rate calorimetric (ARC) determination (adiabatic calorimetry conditions)
[5] = Thermal stability on storage at 60° C. and at 40° C./75% relative humidity (HPLC assay against external standard); conditions: for ASSAY: HPLC
Description: as §1

[N-]=[N+]=N[C@]1(CO)O[C@@H](n2ccc(N)nc2=O)[C@H](O)[C@@H]1O [Form A of Ia]
polymorphic transformation [1]: transformed into Form C
exothermic decomposition onset temperature [2]: approximately 185 °C
exothermic decomposition onset temperature ([2]; listed as Form A polymorph of Ia): 185 °C

[N-]=[N+]=N[C@]1(CO)O[C@@H](n2ccc(N)nc2=O)[C@H](O)[C@@H]1O [Form B of Ia]
polymorphic transformation [1]: transformed into Form C
exothermic decomposition onset temperature [2]: approximately 189 °C
exothermic decomposition onset temperature ([2]; listed as Form B polymorph of Ia): 189 °C

[N-]=[N+]=N[C@]1(CO)O[C@@H](n2ccc(N)nc2=O)[C@H](O)[C@@H]1O [Form C of Ia]
exothermic decomposition onset temperature [2]: approximately 210 °C
exothermic decomposition onset temperature ([2]; listed as Form C polymorph of Ia): 210 °C
APPEARANCE ([3]; 93% RH, 4 weeks): white powder
POLYMORPH ([3]; 93% RH, 4 weeks): Form C
WEIGHT GAIN ([3]; 93% RH, 4 weeks): 0%
ASSAY ([3]; 93% RH, 4 weeks, HPLC): 99.9
hygroscopicity ([3]; 93% relative humidity, 4 weeks): not hygroscopic
Adiabatic Temperature Rise [4]: 265 °C
corrected exothermic decomposition onset temperature [4]: 152 °C
enthalpy of decomposition exotherm [4]: -132 cal/g
APPEARANCE ([5]; 40° C./75% RH, 1 week): white powder
POLYMORPH ([5]; 40° C./75% RH, 1 week): Form C
ASSAY ([5]; 40° C./75% RH, 1 week): 99.9
APPEARANCE ([5]; 40° C./75% RH, 2 weeks): white powder
ASSAY ([5]; 40° C./75% RH, 2 weeks): 99.9
APPEARANCE ([5]; 40° C./75% RH, 4 weeks): white powder
POLYMORPH ([5]; 40° C./75% RH, 4 weeks): Form C
ASSAY ([5]; 40° C./75% RH, 4 weeks): 99.9
APPEARANCE ([5]; 60° C., 1 week): white powder
POLYMORPH ([5]; 60° C., 1 week): Form C
ASSAY ([5]; 60° C., 1 week): 99.9
APPEARANCE ([5]; 60° C., 2 weeks): white powder
ASSAY ([5]; 60° C., 2 weeks): 99.9
APPEARANCE ([5]; 60° C., 4 weeks): white powder
POLYMORPH ([5]; 60° C., 4 weeks): Form C
ASSAY ([5]; 60° C., 4 weeks): 99.9
thermal stability ([5]; at 40 and 60° C. over the duration of the assay): thermal stable

[N-]=[N+]=N[C@]1(CO)O[C@@H](n2ccc(N)nc2=O)[C@H](O)[C@@H]1O [Ia]
hygroscopicity relative to the free base [3]: less hygroscopic than the free base
weight gain on storage ([3]; stored at high relative humidity): No weight gain

Source: patent US6864244B2, “Anhydrous crystalline 1-[4(S)-azido-2(S),3(R)-dihydroxy-4-(hydroxymethyl)-1(R)-cyclopentyl]cytosine hemisulfate as useful as an antiviral agent” (Roche Palo Alto LLC, priority 2002, dated 2005)
